For one experiment, the system named is carrageenin test. The experiment is described as follows: carrageenin test, antiinflammatory effect. It counts as in vivo. The text has this: The inflammation-inhibitory effect can be measured by the carrageenin test (Winter, C. A., E. A. Risley and G. W. Nuss, Proc. Soc. Exp. Biol. Med. 111: 544-547 [1962]).
Experiment [1] concerns passive cutaneous anaphylaxis in rats (PCA), mediator liberation. The experiment is described as follows: passive cutaneous anaphylaxis in rats (PCA), inhibition of allergic reaction. Particulars: iv, rat PCA, i.v. It counts as in vivo. The method, then:
For this purpose, rats are passively sensitized by the intracutaneous injection of various dilutions (1:8 and 1:16) of a standardized IgE-containing hyperimmune serum. After 48 hours, the compound to be tested, dissolved as the sodium salt in a physiological NaCl solution, and ovalbumin as the allergen, combined with a dye to better measure the local allergic reaction, are administered intravenously.
The measurement determines the inhibition of the allergic reaction in the presence of the test compound as compared with the allergic reaction without the inhibiting agent.

A further experiment deals with Diplococcus pneumoniae. The experiment is described as follows: in vitro series dilution test, antibacterial effect. The experiment is classed as cell-based. Particulars: Streptococcus pneumoniae, read-out: Minimum Inhibitory Concentration. The text has this: (§1) The antibacterial effect can be measured in vitro in a series dilution test.
Experiment [2] deals with Staphylococcus aureus 30-107. Described as above. The experiment is classed as cell-based. The note with it: 30107; Staphylococcus aureus 30-107, in vitro; read-out: Minimum Inhibitory Concentration.
Description: as §1

The test system of experiment [3] is Staphylococcus aureus 30-109. The description is as above. The experiment is classed as cell-based. Particulars: 30109; Staphylococcus aureus 30-109, in vitro; read-out: Minimum Inhibitory Concentration.
Description: as §1

The test system of experiment [4] is Staphylococcus aureus 30-2. Described as above. It counts as cell-based. The note with it: 302; Staphylococcus aureus 30-2, in vitro; read-out: Minimum Inhibitory Concentration.
Description: as §1

Experiment [5] concerns Staphylococcus aureus 30-3. The description is as above. It counts as cell-based. Particulars: 303; Staphylococcus aureus 30-3, in vitro; read-out: Minimum Inhibitory Concentration.
Description: as §1

For experiment [6], the system named is Staphylococcus aureus 30-53. The description is as above. The experiment is classed as cell-based. The note with it: 3053; Staphylococcus aureus 30-53, in vitro; read-out: Minimum Inhibitory Concentration.
Description: as §1

Experiment [7] deals with Staphylococcus aureus 30-64. Described as above. The experiment is classed as cell-based. The note with it: 3064; Staphylococcus aureus 30-64, in vitro; read-out: Minimum Inhibitory Concentration.
Description: as §1

Experiment [8] relates to Staphylococcus aureus 30-8. The description is as above. The experiment is classed as cell-based. Particulars: 308; Staphylococcus aureus 30-8, in vitro; read-out: Minimum Inhibitory Concentration.
Description: as §1

Experiment [9] has as its system Diplococcus pneumoniae and a series of strains of Staphylococcus aureus. In words: in vitro series dilution test, antibacterial effect (summary over all bacteria). It counts as cell-based. The note with it: in words.
Description: as §1

Another experiment has as its system mast cells of the lungs. The note with it: upon inhalation; J. Med. Chem. 15: 583 [1972]; cited from earlier work.
Where [10] appears, read: IgE serum dilution 1:8, dissolved as the sodium salt, read-out: % Inhibition, IgE 1:8.
[11] abbreviates: IgE serum dilution 1:16, dissolved as the sodium salt, read-out: % Inhibition, IgE 1:16.

As a reminder, the % Inhibition is the relative decrease from the control value, in per cent. A lower % Inhibition goes with a response near the control. For orientation: inhibition means the drop in the measured response relative to a control, in per cent.

≈ marks a conversion by molar mass, not a printed value. Structures can show the parent of a compound that is named as a salt. Where two headings read alike, the source gives them in different places. Some results are limits rather than exact numbers.

For the compound “1,3-Bis(1-ethoxy-3-carboxy-1,4-dihydro-4-oxo-7-quinolyloxy)-2-propanol”, the “% Inhibition” value in the experiment with carrageenin test (i.v., 10 mg./kg.) stood at 44%; in the experiment on carrageenin test (p.o., 75 mg./kg.), 28%.

For `CCCCn1cc(C(=O)O)c(=O)c2ccc(OCC(O)COc3ccc4c(=O)c(C(=O)O)cn(CCCC)c4c3)cc21` [1,3-Bis(1-butyl-3-carboxy-1,4-dihydro-4-oxo-7-quinolyloxy)-2-propanol], the inhibition at 10 mg/kg in experiment [1] (setting [10]) turned out to be 71%; in experiment [1] (setting [11]) it was 85%.

Consider `CCn1cc(C(=O)O)c(=O)c2ccc(OCC(O)COc3ccc4c(=O)c(C(=O)O)cn(CC)c4c3)cc21` [1,3-Bis(1-ethyl-3-carboxy-1,4-dihydro-4-oxo-7-quinolyloxy)-2-propanol], for which the inhibition at 5 mg/kg in [1] (setting [10]) worked out at 59%; in [1] (setting [11]), 69%. Moreover, the inhibition at 10 mg/kg amounted to 84% in [1] (setting [10]) and 90% in experiment [1] (setting [11]). The MIC in the experiment on Diplococcus pneumoniae came to 50 µg/mL (≈ 95.7 µM); in experiment [2], 50 µg/mL (≈ 95.7 µM); in [3], 25 µg/mL (≈ 47.8 µM); in [4], 25 µg/mL (≈ 47.8 µM); in experiment [5], 12.5 µg/mL (≈ 23.9 µM); in experiment [6], 50 µg/mL (≈ 95.7 µM). Moreover, the results for the MIC in experiment [7] and in experiment [8] were 50 µg/mL (≈ 95.7 µM) and 12.5 µg/mL (≈ 23.9 µM), respectively.

Take `Cn1cc(C(=O)O)c(=O)c2ccc(OCC(O)COc3ccc4c(=O)c(C(=O)O)cn(C)c4c3)cc21` [1,3-Bis(3-carboxy-1,4-dihydro-1-methyl-4-oxo-7-quinolyloxy)-2-propanol]: the figures for the inhibition at 5 mg/kg in experiment [1] (setting [10]) and in experiment [1] (setting [11]) were 62% and 69%, respectively.

Regarding `O=C(O)c1cc(=O)c2c(OCC(O)COc3cccc4oc(C(=O)O)cc(=O)c34)cccc2o1` [Cromoglycic Acid, reference compound], the inhibition at 5 mg/kg in [1] (setting [10]) stood at 63%; in experiment [1] (setting [11]) it was 67%. The inhibition at 10 mg/kg in experiment [1] (setting [10]) is 60%; in experiment [1] (setting [11]), 84%; with carrageenin test (iv, 10 mg./kg.), 10%. In the experiment with carrageenin test (in words), the antiinflammatory activity entry was “only an extremely weak efficacy, or even no corresponding efficacy at all”. Also, the inhibition at 75 mg/kg in the experiment with carrageenin test (po, 75 mg./kg.) was 0%. For the same compound, the MIC (with Diplococcus pneumoniae; in experiment [2]; in experiment [3]; in experiment [4]; in [5]; in experiment [6]) was above 100 µg/mL in each case. For the same compound, the MIC in experiment [7] and in experiment [8] was above 100 µg/mL each time. The antibacterial activity entry in experiment [9] was “ineffective against all bacteria investigated”.

With `O=C(O)c1cc(=O)c2c(OCC(O)COc3cccc4oc(C(=O)O)cc(=O)c34)cccc2o1` [sodium salt of cromoglycic acid], in the experiment with mast cells of the lungs, the “inhibition of liberation of mediators triggering bronchoconstriction, such as histamine and SRS-A” value was “inhibit the liberation of mediators triggering bronchoconstriction”.

(Values after patent US4289777A, “Quinolonecarboxylic acid derivatives and pharmaceutical preparations thereof for treatment of an allergic disease of the respiratory tract” (Schering, Aktiengesellschaft, priority 1978, dated 1981).)
